Results on two compounds are retold here after ChEMBL document CHEMBL4385643, “Design of a brain-penetrant CDK4/6 inhibitor for glioblastoma” (Bioorg Med Chem Lett, 2019).

The target in test [1] is Cyclin-dependent kinase 13/Cyclin-K (Homo sapiens) (UniProt Q14004+O75909). Nature of the test: Inhibition of tracer 236 binding to human GST/His-tagged CDK13/Cyclin K at 0.1 uM. The test is classed as protein-complex assay.
In test [2] the target is G protein-coupled receptor kinase 3 (Homo sapiens) (UniProt P35626). The test can be described thus: Inhibition of recombinant full length human GST-tagged GRK3 expressed in baculovirus expression system at 0.1 uM using serine/threonine-16 peptide as substrate incubated for 60 mins by Z'-LYTE assay relative to control.
For test [3], the target named is Serine/threonine-protein kinase Sgk1 (Homo sapiens) (UniProt O00141). The test can be described thus: Inhibition of recombinant human GST-tagged SGK1 catalytic domain (60 to 431 residues) expressed in baculovirus expression system at 0.1 uM using serine/threonine-6 peptide as substrate incubated for 60 mins by Z'-LYTE assay relative to control.
Test [4] concerns the target Mitogen-activated protein kinase kinase kinase 9 (Homo sapiens) (UniProt P80192). The test can be described thus: Inhibition of recombinant human GST-tagged MLK1 catalytic domain (1 to 500 residues) expressed in baculovirus expression system at 0.1 uM using serine/threonine-7 peptide as substrate incubated for 60 mins by Z'-LYTE assay relative to control.
Test [5] has as its target Tyrosine-protein kinase JAK3 (Homo sapiens) (UniProt P52333). Nature of the test: Inhibition of recombinant human GST-tagged JAK3 catalytic domain (781 to 1124 residues) expressed in baculovirus expression system at 0.1 uM using tyrosine-6 peptide as substrate incubated for 60 mins by Z'-LYTE assay relative to control.
Test [6] has as its target Serine/threonine-protein kinase WNK2 (Homo sapiens) (UniProt Q9Y3S1). The test can be described thus: Inhibition of tracer 1710 binding to recombinant human His-tagged WNK2 catalytic domain (166 to 489 residues) expressed in baculovirus expression system at 0.1 uM measured after 60 mins by Lanthascreen assay relative to control.
Test [7] deals with Activin receptor type-1B (Homo sapiens) (UniProt P36896). The test can be described thus: Inhibition of recombinant human GST-tagged ACVR1B catalytic domain (150 to 505 residues) expressed in baculovirus expression system at 0.1 uM using serine/threonine-16 peptide as substrate incubated for 60 mins by Z'-LYTE assay relative to control.
Sequence of Activin receptor type-1B (Homo sapiens) (P36896 whole entry, the tested form may be a part): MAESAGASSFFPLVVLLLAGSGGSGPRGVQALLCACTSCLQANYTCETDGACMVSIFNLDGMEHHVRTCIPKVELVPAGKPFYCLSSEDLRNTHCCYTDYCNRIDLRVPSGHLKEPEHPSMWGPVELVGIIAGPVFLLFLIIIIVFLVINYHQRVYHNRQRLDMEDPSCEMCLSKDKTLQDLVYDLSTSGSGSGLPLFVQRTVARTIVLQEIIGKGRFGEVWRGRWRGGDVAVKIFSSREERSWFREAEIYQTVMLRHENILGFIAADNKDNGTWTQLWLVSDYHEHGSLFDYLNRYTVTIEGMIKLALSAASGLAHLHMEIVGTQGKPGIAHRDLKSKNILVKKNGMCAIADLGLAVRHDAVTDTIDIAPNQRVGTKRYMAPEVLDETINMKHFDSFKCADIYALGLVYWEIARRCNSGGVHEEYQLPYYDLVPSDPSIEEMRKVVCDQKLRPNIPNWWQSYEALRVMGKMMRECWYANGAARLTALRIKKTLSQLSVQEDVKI
The target of test [8] is cAMP-dependent protein kinase catalytic subunit PRKX (Homo sapiens) (UniProt P51817). The test can be described thus: Inhibition of recombinant full length human GST-tagged PRKX expressed in baculovirus expression system at 0.1 uM using serine/threonine-1 peptide as substrate incubated for 60 mins by Z'-LYTE assay relative to control.
Sequence of cAMP-dependent protein kinase catalytic subunit PRKX (Homo sapiens) (P51817 whole entry, the tested form may be a part): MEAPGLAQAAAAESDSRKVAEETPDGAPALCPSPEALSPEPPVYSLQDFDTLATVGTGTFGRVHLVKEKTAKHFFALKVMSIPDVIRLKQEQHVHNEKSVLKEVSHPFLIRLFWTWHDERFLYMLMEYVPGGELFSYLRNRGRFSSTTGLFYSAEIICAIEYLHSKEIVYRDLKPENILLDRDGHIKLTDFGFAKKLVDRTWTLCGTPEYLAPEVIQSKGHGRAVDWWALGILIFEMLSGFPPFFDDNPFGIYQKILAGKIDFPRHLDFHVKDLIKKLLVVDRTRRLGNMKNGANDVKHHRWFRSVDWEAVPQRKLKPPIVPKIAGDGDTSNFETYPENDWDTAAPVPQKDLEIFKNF
Test [9] has as its target Leucine-rich repeat serine/threonine-protein kinase 2 (Homo sapiens) (UniProt Q5S007). Nature of the test: Inhibition of recombinant human GST-tagged LRRK2 catalytic domain (970 to 2527 amino acids) expressed in baculovirus expression system at 0.1 uM using ERM (LRRKtide) peptide as substrate incubated for 60 mins by Adapta assay relative to control.
Test [10] has as its target Fibroblast growth factor receptor 1 (Homo sapiens) (UniProt P11362). Nature of the test: Inhibition of recombinant human His-tagged FGFR1 catalytic domain (308 to 731 residues) expressed in baculovirus expression system at 0.1 uM using tyrosine-4 peptide as substrate incubated for 60 mins by Z'-LYTE assay relative to control.
Test [11] addresses CDK9/cyclin T1 (Homo sapiens) (UniProt O60563+P50750). The test can be described thus: Inhibition of recombinant full length human His-tagged CDK9/CyclinT1 expressed in baculovirus expression system at 0.1 uM using CDK7/9tide peptide as substrate incubated for 60 mins by Adapta assay relative to control.
Test [12] concerns the target Calcium/calmodulin-dependent protein kinase kinase 1 (Homo sapiens) (UniProt Q8N5S9). Nature of the test: Inhibition of tracer 236 binding to recombinant human GST-tagged CAMKK1 expressed in Escherichia coli expression system at 0.1 uM measured after 60 mins by Lanthascreen assay relative to control. A general note: Time-resolved FRET reads energy transfer from a long-lived donor to a nearby acceptor.

For test [13], the target named is Macrophage-stimulating protein receptor (Homo sapiens) (UniProt Q04912). Nature of the test: Inhibition of recombinant human GST-tagged RON catalytic domain (983 to 1400 residues) expressed in baculovirus expression system at 0.1 uM using tyrosine-6 peptide as substrate incubated for 60 mins by Z'-LYTE assay relative to control.
Test [14] addresses Ribosomal protein S6 kinase alpha-3 (Homo sapiens) (UniProt P51812). Nature of the test: Inhibition of recombinant full length human His-tagged RSK2 expressed in baculovirus expression system at 0.1 uM using serine/threonine-6 peptide as substrate incubated for 60 mins by Z'-LYTE assay relative to control.
In test [15] the target is CDK7/Cyclin H/MNAT1 (Homo sapiens) (UniProt P51946+P50613+P51948). The test can be described thus: Inhibition of recombinant full length human His-tagged CDK7/CyclinH/MAT1 expressed in baculovirus expression system at 0.1 uM using CDK7/9tide peptide as substrate incubated for 60 mins by Adapta assay relative to control.
Test [16] deals with Casein kinase II subunit alpha (Homo sapiens) (UniProt P68400). Nature of the test: Inhibition of recombinant full length human His-tagged CK2 alpha 1 expressed in baculovirus expression system at 0.1 uM using serine/threonine-11 peptide as substrate incubated for 60 mins by Z'-LYTE assay relative to control.
Sequence of Casein kinase II subunit alpha (Homo sapiens) (P68400 whole entry, looked up, the tested form may be a part): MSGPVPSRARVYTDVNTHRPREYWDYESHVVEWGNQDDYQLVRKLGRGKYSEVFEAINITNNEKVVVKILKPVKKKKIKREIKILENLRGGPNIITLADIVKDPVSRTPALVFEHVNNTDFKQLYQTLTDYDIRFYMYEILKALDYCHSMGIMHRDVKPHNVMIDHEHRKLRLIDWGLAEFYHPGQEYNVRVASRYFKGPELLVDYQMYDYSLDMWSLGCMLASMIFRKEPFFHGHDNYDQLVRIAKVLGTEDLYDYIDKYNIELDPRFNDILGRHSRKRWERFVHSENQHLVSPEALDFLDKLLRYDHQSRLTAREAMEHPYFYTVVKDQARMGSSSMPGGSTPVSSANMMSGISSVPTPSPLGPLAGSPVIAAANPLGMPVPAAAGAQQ
Test [17] has as its target Cyclin-C/Cyclin-dependent kinase 19 (Homo sapiens) (UniProt Q9BWU1+P24863). Nature of the test: Inhibition of tracer 236 binding to recombinant human GST/His-tagged CDK11/Cyclin C catalytic domain (CDK11: 1 to 502, Cyclin C: 1 to 283) expressed in insect cells expression system at 0.1 uM measured after 60 mins by Lanthascreen assay relative to control.
Test [18] has as its target Vascular endothelial growth factor receptor 1 (Homo sapiens) (UniProt P17948). The test can be described thus: Inhibition of recombinant human GST-tagged FLT1 catalytic domain (781 to 1338 residues) expressed in baculovirus expression system at 0.1 uM using tyrosine-4 peptide as substrate incubated for 60 mins by Z'-LYTE assay relative to control.
In test [19] the target is Hepatocyte growth factor receptor (Homo sapiens) (UniProt P08581). Nature of the test: Inhibition of recombinant human His-tagged MET (956 to 1390 residues) expressed in baculovirus expression system at 0.1 uM using tyrosine-6 peptide as substrate incubated for 60 mins by Z'-LYTE assay relative to control.
Sequence of Hepatocyte growth factor receptor (Homo sapiens) (P08581 whole entry, the tested form may be a part): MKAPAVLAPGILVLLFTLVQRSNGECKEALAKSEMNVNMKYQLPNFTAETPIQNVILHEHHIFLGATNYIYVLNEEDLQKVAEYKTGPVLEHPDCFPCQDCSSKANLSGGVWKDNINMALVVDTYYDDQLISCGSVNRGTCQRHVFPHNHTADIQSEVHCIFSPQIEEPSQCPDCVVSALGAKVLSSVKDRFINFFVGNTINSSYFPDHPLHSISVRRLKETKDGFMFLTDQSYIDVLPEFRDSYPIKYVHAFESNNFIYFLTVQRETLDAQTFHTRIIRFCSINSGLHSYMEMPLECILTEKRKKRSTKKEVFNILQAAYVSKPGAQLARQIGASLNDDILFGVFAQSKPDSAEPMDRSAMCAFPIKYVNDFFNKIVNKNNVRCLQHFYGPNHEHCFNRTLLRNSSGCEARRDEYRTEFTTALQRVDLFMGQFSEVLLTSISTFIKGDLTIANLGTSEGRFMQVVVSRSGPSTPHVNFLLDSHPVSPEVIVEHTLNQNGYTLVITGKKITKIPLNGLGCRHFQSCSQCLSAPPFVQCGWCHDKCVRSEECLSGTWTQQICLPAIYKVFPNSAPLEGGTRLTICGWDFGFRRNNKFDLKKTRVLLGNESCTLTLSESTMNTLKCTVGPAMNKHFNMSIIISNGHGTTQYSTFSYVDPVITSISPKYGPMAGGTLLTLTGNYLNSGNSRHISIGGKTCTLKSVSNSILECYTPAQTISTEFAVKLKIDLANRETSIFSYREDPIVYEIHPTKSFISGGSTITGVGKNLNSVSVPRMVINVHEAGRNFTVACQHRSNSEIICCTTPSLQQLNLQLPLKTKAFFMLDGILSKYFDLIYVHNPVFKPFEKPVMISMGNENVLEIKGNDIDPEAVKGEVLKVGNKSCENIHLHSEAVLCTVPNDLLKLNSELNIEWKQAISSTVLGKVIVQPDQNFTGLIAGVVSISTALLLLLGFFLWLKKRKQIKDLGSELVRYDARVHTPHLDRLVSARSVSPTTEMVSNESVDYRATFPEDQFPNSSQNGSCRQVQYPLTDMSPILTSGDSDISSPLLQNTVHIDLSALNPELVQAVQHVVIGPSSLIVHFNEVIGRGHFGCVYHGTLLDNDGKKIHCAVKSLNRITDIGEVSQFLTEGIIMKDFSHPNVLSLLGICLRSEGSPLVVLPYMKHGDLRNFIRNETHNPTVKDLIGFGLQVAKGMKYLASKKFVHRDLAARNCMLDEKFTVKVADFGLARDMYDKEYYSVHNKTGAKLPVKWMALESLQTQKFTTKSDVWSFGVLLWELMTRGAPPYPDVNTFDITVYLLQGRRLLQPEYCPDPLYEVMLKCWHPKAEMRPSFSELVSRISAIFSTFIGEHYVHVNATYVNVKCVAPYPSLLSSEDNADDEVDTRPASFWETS
The target in test [20] is NUAK family SNF1-like kinase 1 (Homo sapiens) (UniProt O60285). Nature of the test: Inhibition of recombinant full length human His-tagged ARK5 expressed in baculovirus expression system at 0.1 uM using CHKtide peptide as substrate incubated for 60 mins by Adapta assay relative to control.
Test [21] concerns the target Phosphatidylinositol 4,5-bisphosphate 3-kinase catalytic subunit alpha isoform (Homo sapiens) (UniProt P42336). The test can be described thus: Inhibition of recombinant full length human GST-tagged PI3Kalpha expressed in baculovirus expression system at 0.1 uM using PI Lipid Kinase as substrate incubated for 60 mins by Adapta assay relative to control.
The target of test [22] is Aurora kinase A (Homo sapiens) (UniProt O14965). The test can be described thus: Inhibition of recombinant full length human His-tagged Aurora A expressed in baculovirus expression system at 0.1 uM using serine/threonine-1 peptide as substrate incubated for 60 mins by Z'-LYTE assay relative to control.
Sequence of Aurora kinase A (Homo sapiens) (O14965 whole entry): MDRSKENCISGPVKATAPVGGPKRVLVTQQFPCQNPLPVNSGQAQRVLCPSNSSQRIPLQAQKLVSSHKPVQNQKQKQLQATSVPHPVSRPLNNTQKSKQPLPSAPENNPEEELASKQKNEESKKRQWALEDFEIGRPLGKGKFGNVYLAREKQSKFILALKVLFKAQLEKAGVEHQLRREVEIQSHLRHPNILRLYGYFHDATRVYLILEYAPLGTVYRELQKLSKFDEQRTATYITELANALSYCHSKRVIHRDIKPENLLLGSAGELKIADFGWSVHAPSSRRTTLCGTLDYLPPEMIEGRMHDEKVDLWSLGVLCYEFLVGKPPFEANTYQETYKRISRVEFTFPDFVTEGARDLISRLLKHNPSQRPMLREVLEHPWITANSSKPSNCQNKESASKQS

The structures appear in SMILES notation.

Sequence of Fibroblast growth factor receptor 1 (Homo sapiens) (P11362 22-822 limits assumed): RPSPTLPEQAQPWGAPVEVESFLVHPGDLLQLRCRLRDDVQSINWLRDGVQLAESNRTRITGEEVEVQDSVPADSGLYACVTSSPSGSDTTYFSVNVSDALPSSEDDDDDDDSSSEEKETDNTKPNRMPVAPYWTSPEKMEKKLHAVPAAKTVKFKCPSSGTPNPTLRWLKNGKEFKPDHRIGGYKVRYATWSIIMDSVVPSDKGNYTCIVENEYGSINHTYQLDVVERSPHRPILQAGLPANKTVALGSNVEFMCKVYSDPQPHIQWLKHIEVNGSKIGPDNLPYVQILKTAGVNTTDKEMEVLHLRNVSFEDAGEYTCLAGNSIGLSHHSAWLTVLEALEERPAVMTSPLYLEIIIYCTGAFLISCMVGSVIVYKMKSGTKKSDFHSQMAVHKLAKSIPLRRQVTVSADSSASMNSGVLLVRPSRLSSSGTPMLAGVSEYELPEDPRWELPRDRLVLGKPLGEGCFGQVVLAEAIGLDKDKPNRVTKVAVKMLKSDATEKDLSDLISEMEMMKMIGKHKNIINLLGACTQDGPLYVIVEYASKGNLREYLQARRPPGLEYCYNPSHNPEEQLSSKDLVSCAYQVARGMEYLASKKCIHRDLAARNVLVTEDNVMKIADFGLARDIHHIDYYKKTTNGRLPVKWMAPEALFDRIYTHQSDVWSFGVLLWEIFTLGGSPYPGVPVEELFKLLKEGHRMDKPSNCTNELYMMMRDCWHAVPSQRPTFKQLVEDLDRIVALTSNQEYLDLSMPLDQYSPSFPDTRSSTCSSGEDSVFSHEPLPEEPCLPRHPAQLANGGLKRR
Sequence of Tyrosine-protein kinase JAK3 (Homo sapiens) (P52333 whole entry, the tested form may be a part): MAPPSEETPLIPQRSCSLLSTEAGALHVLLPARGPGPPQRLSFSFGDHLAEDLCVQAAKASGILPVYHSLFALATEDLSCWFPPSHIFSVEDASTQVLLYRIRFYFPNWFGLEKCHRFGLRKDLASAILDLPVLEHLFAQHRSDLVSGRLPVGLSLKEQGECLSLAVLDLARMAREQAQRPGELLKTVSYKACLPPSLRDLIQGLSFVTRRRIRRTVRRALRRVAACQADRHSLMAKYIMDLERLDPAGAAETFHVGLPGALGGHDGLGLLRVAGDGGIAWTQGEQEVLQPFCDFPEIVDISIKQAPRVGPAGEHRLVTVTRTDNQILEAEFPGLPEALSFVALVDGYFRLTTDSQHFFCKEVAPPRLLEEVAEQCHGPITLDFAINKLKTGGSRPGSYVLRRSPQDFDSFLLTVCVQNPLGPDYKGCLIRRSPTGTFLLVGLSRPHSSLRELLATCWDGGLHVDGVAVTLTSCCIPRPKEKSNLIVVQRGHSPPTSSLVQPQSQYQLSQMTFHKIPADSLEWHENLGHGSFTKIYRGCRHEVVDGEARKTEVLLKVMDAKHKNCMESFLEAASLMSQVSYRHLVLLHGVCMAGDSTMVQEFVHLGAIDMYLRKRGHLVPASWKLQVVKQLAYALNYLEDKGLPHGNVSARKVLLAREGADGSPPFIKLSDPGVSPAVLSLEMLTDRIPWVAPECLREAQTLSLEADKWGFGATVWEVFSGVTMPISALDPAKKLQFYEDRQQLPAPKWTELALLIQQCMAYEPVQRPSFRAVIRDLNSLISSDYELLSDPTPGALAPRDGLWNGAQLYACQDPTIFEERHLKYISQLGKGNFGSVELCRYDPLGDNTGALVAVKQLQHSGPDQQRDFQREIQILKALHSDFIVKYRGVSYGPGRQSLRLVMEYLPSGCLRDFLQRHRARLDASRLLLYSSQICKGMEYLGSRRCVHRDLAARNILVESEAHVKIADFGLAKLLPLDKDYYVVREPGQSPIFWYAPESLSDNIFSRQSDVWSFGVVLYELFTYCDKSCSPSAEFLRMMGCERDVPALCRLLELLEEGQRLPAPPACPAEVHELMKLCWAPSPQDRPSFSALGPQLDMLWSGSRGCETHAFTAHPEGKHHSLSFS

A word on the inhibition: it is the drop in the measured response relative to a control, in per cent. For `CCN1CC2(C1)CN(c1ccc(Nc3ncc(F)c(-c4cnn5c4[C@H](C)CCCC5)n3)nc1)C2`, the inhibition in test [1] amounted to 50%; in [2] it was 0%; in test [3], 72.5%; in [4], 47%; in test [5], 61.5%; in test [6], 0.5%. The inhibition in test [7] was -4%; in test [8], 5.5%; in test [9] it was 97.5%; in [10] it was -4%; in test [11], 59.5%; in test [12], 12%. For the same compound, the inhibition in test [13] was found to be 7%; in [14], 53%; in test [15], 10.5%; in test [16], 0.5%; in [17], 81%; in test [18], 2.5%. For the same compound, the inhibition was 10% in test [19], 92% in [20], 1.5% in test [21] and 12% in test [22].

On to `CCN1CCN(Cc2ccc(Nc3ncc(F)c(-c4cc(F)c5nc(C)n(C(C)C)c5c4)n3)nc2)CC1` [ABEMACICLIB], for which the inhibition was 38% in test [1]; 0.5% in test [2]; 64% in test [3]; 11.5% in [4]; 30% in test [5]; 2.7% in test [6]. Moreover, the inhibition in test [7] is -2%; in test [8], 5%; in test [9], 74.6%; in test [10] it was -0.4%; in [11], 92.5%; in test [12] it was 12.6%. For the same compound, the inhibition in test [13] is 10.5%; in test [14] it was 10.5%; in test [15], 19.1%; in [16] it was 31.5%; in [17] it was 19%; in test [18], 3%. Further, the inhibition in [19] was found to be 32.5%; in test [20], 22.7%; in test [21], 4%; in [22], 9.5%.
